Data reported in patent publication US4929445A, “Method for inhibiting Listeria monocytogenes using a bacteriocin” (Microlife Technics, Inc., priority 1988, dated 1990).

Legend:
[1] = cited from earlier work
[2] = system: Lactococcus, Streptococcus, Staphylococcus, Micrococcus and Lactobacillus strains; conditions: Lactococcus lactis, L. lactis subsp. diacetylactis, L. cremoris, Streptococcus thermophilus, Staphylococcus aureus, xylosus, epidermidis, carnosus, Micrococcus varians, sodonensis, Lactobacillus acidophilus, bulgaricus; cited from earlier work
Listeria monocytogenes [3] = experiment: Activity of PA-1 against Listeria monocytogenes in dressed Cottage cheese; assay type: cell-based
Procedure: Listeria monocytogenes was added to dressed Cottage cheese (pH 5.1) at a rate of 6.5×10^3 cfu/gram of dressed Cottage cheese. The bacteriocin powder to Example 1 (PA-1) was added to the Cottage cheese at a rate of 10 or 50 U (units)/g dressed Cottage cheese. The samples were mixed and incubated at 4° C. and aliquots were removed and plated onto McBride's Agar (Difco, Detroit, Mich.) and incubated at 32° C. and examined for growth of Listeria monocytogenes.

Listeria monocytogenes [4] = experiment: Effect of PA-1 powder on an exponential culture (turbidity at 660 nm); assay type: cell-based; conditions: 200 U/ml and 500 U/ml added after 3.75 hours, APT broth, 32° C.
Procedure: The PA-1 powder was added to a L. monocytogenes culture at 200 U(units)/ml or 500 U/ml and turbidity (which is an indicator of the number of cells) was monitored over time at 660 nanometers. The symbols used are , control (no PA-1 added); .circle., 200 U/ml PA-1; .quadrature., 500 U/ml PA-1.
Sterile PA-1 bacteriocin powder was added to an exponential culture of Listeria monocytogenes at a rate of 200 U/ml of broth and 500 U/ml of broth. Listeria monocytogenes was grown in APT broth at 32° C. Absorbance was followed over time at 660 nm.

Listeria monocytogenes [5] = experiment: Activity of PA-1 against Listeria monocytogenes in cheese sauce; assay type: cell-based; conditions: cheese sauce pH 5.25, 4° C., LM 5.3 × 10^3 cells per gram
Procedure: Listeria monocytogenes was added to the cheese sauce (pH 5.25) at a rate of 5.3×10^3 cfu/g of cheese sauce. The bacteriocin powder PA-1 was added to the cheese sauce at a rate of 10 or 50 U/g of sauce. The samples were mixed and incubated at 4° C. and aliquots were removed and examined for growth of Listeria monocytogenes.

[6] = system: Listeria monocytogenes LM01; experiment: MIC and MBC by two-fold broth dilution; assay type: cell-based; conditions: APT broth, 24 hours at 32° C.
Procedure: Bacteriocin PA-1 powder was dissolved in APT broth and two-fold serially diluted to concentrations ranging from 1000 U/ml to 2.0 U/ml. Approximately 1×10^3 Listeria monocytogenes/ml were added to each of the tubes which then were incubated for 24 hours at 32° C. The MIC value was the lowest concentration tube displaying no visible turbidity.

Listeria monocytogenes [7] = experiment: Activity of PA-1 against Listeria monocytogenes in half and half cream; assay type: cell-based; conditions: half and half cream pH 6.7, 4° C., LM 4.3 × 10^3 cells per ml, PA-1 50 U/ml
Procedure: Listeria monocytogenes was added to the cream (pH 6.7) at a rate of 4.3×10^3 cfu/ml of cream. The bacteriocin powder PA-1 was added to the cream at a rate of 10 or 50 U/ml cream. The samples were mixed and incubated at 4° C. and aliquots were removed and examined for growth of Listeria monocytogenes .

[8] = system: Pediococcus pentosaceus FBB63C; experiment: MIC and MBC by two-fold broth dilution; assay type: cell-based; conditions: APT broth, 24 hours at 32° C.

PA-1: bacteriocin of about 16,500 daltons produced by Pediococcus acidilactici NRRL-B-18050 (PAC 1.0); tested as lyophilized culture supernatant powder with nonfat dry milk
Effect of heating on the bacteriocin ([1]; heating to 100° C. in water): unaffected
Effect of proteolytic enzymes on the bacteriocin ([1]; in vitro mixing with protease, papain or alpha-chymotrypsin): inactivated
Effect of other enzymes on the bacteriocin ([1]; phospholipase C, lysozyme, Dnase and RNase): unaffected
Inhibitory activity against other gram positive bacteria [2]: No activity was found
Growth of Listeria at 24 h (Listeria monocytogenes [3]; dressed Cottage cheese pH 5.1, 4° C., LM 6.5 × 10^3 cells per gram, PA-1 10 U/g): 0 cfu/g
Growth of Listeria at 24 h (Listeria monocytogenes [3]; dressed Cottage cheese pH 5.1, 4° C., LM 6.5 × 10^3 cells per gram, PA-1 50 U/g): 0 cfu/g
Growth of Listeria at 24 h (Listeria monocytogenes [3]; dressed Cottage cheese, 4° C., no LM added, PA-1 50 U/g): 0 cfu/g
Effect on exponential culture, absorbance at 660 nm (Listeria monocytogenes [4]): not only inhibitory but also bacteriocidal
Growth of Listeria at 24 h (Listeria monocytogenes [5]; PA-1 10 U/g): 4.0 × 10^2 cfu/g
Growth of Listeria at 24 h (Listeria monocytogenes [5]; PA-1 50 U/g): 0 cfu/g
MBC ([6]; no CFU on APT agar): 7.8 U/ml
MIC ([6]; about 1×10^3 cells/ml, no visible turbidity): < 2.0 U/ml
Growth of Listeria at 24 h (Listeria monocytogenes [7]): 0 cfu/g
MBC ([8]; no CFU on APT agar): 31.3 U/ml
MIC ([8]; no visible turbidity): 7.8 U/ml
